Data reported in patent US5607836A, “Methods of detecting compounds which bind to the P2U receptor” (The Curators of the University of Missouri, priority 1995, dated 1997).

Assays:
[1] = target: T1, P2U receptor of CF/T43 cells (Homo sapiens, UniProt P41231); test: intracellular calcium by fura-2 fluorescence in CF/T43 cells (endogenous receptor); type: cell-based; settings: for [Ca^2+ ]i response to extracellular nucleotide: 10^-4 M (printed for UTP)
T1 construct: fura-2 calcium
Experimental: (§1) Heteroloqous Expression. A retroviral vector-containing plasmid, pLHP2USN, was constructed by insertion of the cloned CF/T43 cDNA into the EcoRI and XhoI sites of pLXSN (A. Miller and G. Rosman, Biotechniques 7, 980 (1989)). An amphotrophic packaging cell line, PA317, was used to produce the LHP2USN retroviral vector and a control vector containing Neor only (LSN). Clonal human astrocytoma cells 1321N1, UNC strain, generously provided by T. K. Harden (UNC, Chapel Hill, N.C.), were plated at 150,000 cells per 60-mm dish and infected with LHP2USN or LSN (2 hr, 4 ug/ml Polybrene) and after 48 hr selected with 600 ug/ml G418 (Life Technologies, Inc., Gaithersburg, Md., U.S.A.). To assay for receptor activity, intracellular calcium concentration was measured in confluent cells on coverslips by fura-2 fluorescence using microspectrofluorimetry as previously described (S. Mason et al., Br. J. Pharmacol. 103, 1649 (1991)). Measurement of cell inositol phosphate formation was as described by H. Brown et al., Mol. Pharmacol. 40, 648 (1991), in accordance with known techniques.
(§2) A retrovirus expression system was employed to study the cloned CF/T43 HP2U cDNA in 1321N1 human astrocytoma cells. The effect of extracellular nuceotides on intracellular calcium, as measured by fura-2 fluorescence, was assessed in CF/T43 cells, uninfected 1321N1 cells, and 1321N1 cells infected with retroviral vector containing either the cloned HP2U or no insert (LSN).

[2] = tested on: 1321N1 human astrocytoma cells (uninfected or LSN-infected); test: intracellular calcium by fura-2 fluorescence in uninfected or LSN-infected 1321N1 control cells; type: cell-based; settings: uninfected or LSN-infected controls
Experimental: as §1, §2

human P2U receptor = human P2U receptor (Homo sapiens, UniProt P41231); test: inositol phosphate formation in 1321N1 cells expressing LHP2USN; type: cell-based; settings: 1321N1 cells expressing LHP2USN pretreated with apyrase
Experimental: as §1
To test this possibility more directly, we measured inositol phosphate formation. […] We hypothesized that during the lengthy labeling period 1321N1 cells released 5'-nucleotides into the medium in quantities sufficient to "self-activate" the receptor. […] Thus, it appears the cells are persistently stimulated by nucleotides in an autocrine fashion. The mode of release of nucleotides from the astrocytoma cells and the biological consequences of the persistent autocrine activation are unknown. To facilitate comparison with controls, the inositol phosphate studies were performed on cells pretreated with apyrase.

[3] = tested on: P2T receptor of K562 cells; test: cytoplasmic free calcium (fura-2) in untransfected or vector-transfected K562 cells; type: cell-based, human; settings: untransfected or vector-transfected K562 cells
Excerpt: Stable and Transient Transfections. To generate stable transfectants expressing the P2U receptor, K562 cells were transfected by electroporation (F. Toneguzzo et al., Mol. Cell. Biol. 6, 703 (1986)) with the neomycin-resistance plasmid pP2R1. pP2R1 is pRc/CMV containing a ~2.4 kb HindIII-NotI fragment of the P2U receptor cDNA, missing the first 6 nucleotides of the 5' untranslated region of the full length cDNA. control cells were stably transfected with pRc/CMV. Cells were sedimented at 200×g for 5 min at room temperature, rinsed once with phosphate-buffered saline (10 mM NaH2 PO4, pH 7.4, 120 mM NaCl, 5 mM KCl), and resuspended in phosphate-buffered saline at a final concentration of 4×10^7 cells/ml. The cells were chilled on ice for 10 min and then transferred in 0.5 ml aliquots to prechilled electroporation cuvettes. DNA (40 μg of pP2R1 linearized with PvuI) was added to the cell suspension, the cells were subjected to a single electrical pulse (1 kV, 25 μF) and the cuvettes were placed on ice. After 10 min, growth medium was added and the cells were incubated at 37° C. Fresh growth medium supplemented with 0.7 mg/ml G418 was added 48 h […], and the cells were incubated for 2 weeks to select for stable transfectants expressing neomycin resistance. Clonal cell lines were then isolated by transferring single cells to individual wells of a 96-well culture plate: each well contained 0.2 ml of conditioned growth medium filtered from K562 stock cultures, 0.2 ml of fresh growth medium, and 0.4 mg/ml G418. The clonal cell lines were cultured for three to four weeks in growth medium containing 0.4 mg/ml G418 and assayed for P2U receptor, the results shown are from one representative clonal cell line.
(§3) Cytoplasmic Free Calcium Measurements. Cells were sedimented at 200×g for 5 min at room temperature and washed once with 10 ml of Hepes-bufferedsaline (20 mM Hepes, pH 7.4, 120 mM NaCl, 5 mM KCl, 1 mM MgCl2, and 1 mM CaCl2). Washed cells were suspended in Hepes-buffered saline at 5×10^5 cells/ml, and stored (for up to 4 h) at 37° C. The concentration of cytoplasmic free calcium, [Ca^2+ ]i, was measured by dual-excitation spectrofluorometric analysis of cells loaded with fura-2, a fluorescent probe for calcium.

[4] = target: histidine-tagged P2U receptor (P2HIS) (Mus musculus, UniProt P35383); test: cytoplasmic free calcium in K562 cells stably expressing histidine-tagged P2U receptor (P2HIS); type: cell-based, murine
Experimental: as §3
Construction and Purification of the Histidine-tagged P2U Receptor (P2HIS). To produce P2HIS, 70 pmoles of the primers CGCACCATTGCCTTGGTAC (SEQ ID NO:3)(which contains a BstXI site) and […] (SEQ ID NO:4) (which contains an EcoRV site, stop codon, and the hexahistidine coding sequence) were incubated with 50 ng of pP2R, 20 nmoles of each dNTP, 1X reaction buffer (20 mM Tris-HCl, pH 8.2, 10 mM KCl, 6 mM (NH4)2 SO4, 1.5 mM MgCl2, and 0.1% Triton X-100), and H2 O to bring the reaction mixture to a 100 μl volume. […] The reaction mixture was overlayed with 50 μl of mineral oil and subjected to 30 PCR cycles (95° C. for 1.5 min, 55° C. for 1.5 min, and 72° C. for 2 min). The PCR product, a single 400 bp band, was subcloned into the unique BstXI-EcoRV restriction site of pP2R to generate pP2HIS. […]

murine P2U receptor = murine P2U receptor (Mus musculus, UniProt P35383); design: host or cells: Xenopus oocytes; settings: Lustig et al. 1993, cited from earlier work; for EC50: Xenopus oocytes, read-out: EC50 in Xenopus oocytes expressing the P2U receptor; for activation of the cloned murine receptor: background
Chain of murine P2U receptor (P35383 whole entry): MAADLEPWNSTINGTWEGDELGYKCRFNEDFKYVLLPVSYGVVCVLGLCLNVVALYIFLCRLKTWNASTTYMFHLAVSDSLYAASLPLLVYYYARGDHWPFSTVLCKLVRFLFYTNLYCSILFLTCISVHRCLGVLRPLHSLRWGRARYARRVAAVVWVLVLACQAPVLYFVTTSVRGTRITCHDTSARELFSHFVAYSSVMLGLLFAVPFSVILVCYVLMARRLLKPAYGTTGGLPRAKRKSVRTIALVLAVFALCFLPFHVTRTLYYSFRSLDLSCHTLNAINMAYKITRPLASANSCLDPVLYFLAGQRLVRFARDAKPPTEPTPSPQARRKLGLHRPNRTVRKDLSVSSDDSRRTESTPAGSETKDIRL

T1 sequence (P41231 whole entry): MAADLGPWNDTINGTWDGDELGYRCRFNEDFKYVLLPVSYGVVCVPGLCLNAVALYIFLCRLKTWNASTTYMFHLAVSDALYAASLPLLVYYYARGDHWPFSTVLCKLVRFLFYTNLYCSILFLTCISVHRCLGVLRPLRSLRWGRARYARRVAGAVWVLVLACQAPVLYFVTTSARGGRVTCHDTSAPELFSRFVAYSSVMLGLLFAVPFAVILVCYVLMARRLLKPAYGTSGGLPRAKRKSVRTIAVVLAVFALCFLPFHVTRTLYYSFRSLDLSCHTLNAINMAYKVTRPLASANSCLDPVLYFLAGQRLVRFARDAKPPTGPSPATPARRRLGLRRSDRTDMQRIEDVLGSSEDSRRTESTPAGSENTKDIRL
Chain of human P2U receptor (P41231 whole entry): as above
Chain of histidine-tagged P2U receptor (P2HIS) (P35383 whole entry): as the sequence (P35383 whole entry) above

Nc1ncnc2c1ncn2[C@@H]1O[C@H](COP(=O)(O)OP(=O)(O)OP(=O)(O)O)[C@@H](O)[C@H]1O [ATP]
[Ca^2+ ]i response to extracellular nucleotide [1]: the same result observed with UTP | [Ca^2+ ]i response to extracellular nucleotide in Ca2+-free medium [1]: the same result observed with UTP | [Ca^2+ ]i response of uninfected or LSN-infected 1321N1 cells [2]: the same result observed with UTP | inositol phosphate accumulation (human P2U receptor): increased inositol phosphate accumulation | elevation of [Ca^2+ ]i in untransfected or vector-transfected K562 cells [3]: Neither ATP nor UTP elevated [Ca^2+ ]^i | [Ca^2+ ]i in K562 cells stably expressing P2HIS [4]: increase in [Ca^2+ ]i | EC50 (murine P2U receptor): ~1000 nM | activation of the cloned murine receptor (murine P2U receptor): activated

O=c1ccn([C@@H]2O[C@H](COP(=O)(O)OP(=O)(O)OP(=O)(O)O)[C@@H](O)[C@H]2O)c(=O)[nH]1 [UTP]
[Ca^2+ ]i response to extracellular nucleotide [1]: initial sharp increase in [Ca^2+ ]i which relaxed over 1-2 min to a prolonged plateau | [Ca^2+ ]i response to extracellular nucleotide in Ca2+-free medium [1]: sharp increase in [Ca^2+ ]i which returned to baseline without an intervening plateau phase | [Ca^2+ ]i response of uninfected or LSN-infected 1321N1 cells [2]: no effect | inositol phosphate accumulation (human P2U receptor): increased inositol phosphate accumulation | elevation of [Ca^2+ ]i in untransfected or vector-transfected K562 cells [3]: Neither ATP nor UTP elevated [Ca^2+ ]^i | [Ca^2+ ]i in K562 cells stably expressing P2HIS [4]: increase in [Ca^2+ ]i | EC50 (murine P2U receptor): ~1000 nM | activation of the cloned murine receptor (murine P2U receptor): activated
